What was measured:
[1] = test system: human wild type p21 promoter; test: p21 promoter assay (luciferase) in MFLL-9 cells; type: cell-based; conditions: 20 hours, concentration giving 1000% luminescence relative to negative control (100%)
Protocol: As an HDAC-inhibiting activity in an […] system, the following measurement was carried out using the p21 promoter inducing activity as an index. MFLL-9 cells used in the experiment are cells stably retaining a fusion gene (Dr. B. Vogelstaein) from the human wild type p21 promoter and luciferase gene. They were cultured using phenol red-free DMEM supplemented with 10% FBS in a steam-saturated incubator at 37° C. in the presence of 5% carbon dioxide. These MFLL-9 cells were sowed onto a 96-well microplate at a cell density of 2×10^4 cells/well and, after 24 hours of cultivation in 99 μl, per well, of the medium mentioned above, each test compound solution was added, followed by 20 hours of incubation. […] In a negative control, the same procedure was carried out without adding any inhibitor to the reaction system.
Using Luciferase Assay Reagent (Promega), the intensity of the luminescence due to the product of the enzymatic reaction involving luciferase expressed within cells was measured.

[2] = test system: lung cancer cell line NCI-H522; test: Human cancer cell line panel, proliferation (sulforhodamine B); type: cell-based; conditions: NCI-H522, 2 days of cultivation; read-out: 50% inhibitory concentration, proliferation
Excerpt: (§1) The characteristics of the human cancer cell proliferation-inhibiting activity of the compounds of the present invention were examined by the “method of evaluating the mechanisms of action of compounds using a panel of human cancer cell lines” as proposed by Yamori et al. (cf. Gan to Kagaku Ryoho (Cancer and Chemotherapy) 29 Suppl. II (2002) and Cancer Chemother. Pharmacol. 52 Suppl. I, S74-79 (2003)).
(§2) This system includes […] (7 lung cancer, 6 stomach cancer, 5 colon cancer, 5 ovarian cancer, 6 brain tumor, […], 2 kidney cancer and 2 prostate cancer cell lines as well as one melanoma line) and the method comprises measuring the in vitro drug susceptibilities of those cancer cell lines and expressing the differences in drug susceptibility among the respective cancer cell lines as a fingerprint. […] By utilizing this property, it is possible to estimate the mechanisms of action of a compound. The above method is also characterized in that an anticancer substance showing new and unique mechanisms of action different from those of the existing anticancer agents can be selected.
(§3) Cancer cells of each cell line are sowed onto a 96-well plate, a sample solution is added on the next day and, after 2 days of cultivation, the cell proliferation is measured by colorimetry using sulforhodamine B. The deviations in effective concentration for the respective cancer cell lines from the mean effective drug concentration for the 39 cancer cell lines subjected to measurement are calculated and shown in the form a fingerprint.

[3] = test system: melanoma cell line LOX-IMVI; test: as above; type: cell-based; conditions: 2 days of cultivation, read-out: 50% inhibitory concentration, proliferation
Excerpt: as §1, §2, §3

human HDAC4 = molecular target: T1, human HDAC4 (Homo sapiens, UniProt P56524); test: HDAC-inhibiting activity, coumarin-labeled acetylated histone peptide assay; type: biochemical; conditions: human HDAC4 from transfected 293T cells; 37° C., 30 minutes; read-out: HDAC-inhibiting activity IC50 HDAC4
T1 construct: made in house; host or cells: 293T cells (transient transfection, anti-FLAG immunoprecipitation, FLAG peptide elution)
Protocol: In carrying out HDAC-inhibiting activity measurements, HDAC solutions were prepared in the following manner. […] The human HDAC1 expression vector used was pcDNA3-HD1 (Yang, W. M., Yao, Y. L., Sun, […]. & Seto, E. (1997) J. Biol. Chem. 272, 28001-28007), the human HDAC4 expression vector used was pcDNA3-HD4 ([…]., Nagase, […]. Biol. Chem. 274, 11713-11720), and the murine HDAC6 expression vector used was pcDNA3-mHDA2/HDAC6 ([…]. Biol. Chem. 274, 2440-2445). After 24 hours of incubation, cells were recovered, washed with PBS, suspended in lysis buffer (50 mM Tris-HCl (pH 7.5), 120 mM NaCl, 5 mM EDTA, 0.5% Nonidet P-40), and sonicated. The supernatant was collected by centrifugation and then deprived of nonspecific proteins using Protein A/G plus agarose beads (Santa Cruz Biotechnologies, Inc.). Thereafter, anti-FLAG M2 antibody (Sigma-Aldrich Inc.) was added, and the reaction was allowed to proceed at 4° C. for 2 hours. To this were added agarose beads, the reaction was allowed to proceed at 4° C. for 3 hours, and the agarose beads were washed three times with lysis buffer and then once with HD buffer (20 mM Tris-HCl (pH 8.0), 150 mM NaCl, 10% glycerol). […] HDAC-inhibiting activity evaluation in each in vitro system was made as follows. Each test compound was dissolved in DMSO, a stock solution with a concentration of 10 mM was thus prepared and this was used as an inhibitor stock solution. The assay was carried out by incubating the HDAC solution and a coumarin-labeled acetylated histone peptide solution in the presence of the test compound at 37° C. for 30 minutes (reaction volume 20 μl). To the reaction mixture was added 30 μl of trypsin, and the aminomethylcoumarin released by the enzymatic reaction was assayed using a fluorescent plate reader. In a negative control assay, no inhibitor was added to the reaction system and the same procedure was carried out.

human HDAC1 = molecular target: T2, human HDAC1 (Homo sapiens, UniProt Q13547); test: as above; type: biochemical; conditions: human HDAC1 from transfected 293T cells; 37° C., 30 minutes
T2 construct: made in house; host or cells: 293T cells (transient transfection, anti-FLAG immunoprecipitation, FLAG peptide elution)
Protocol: (§4) In carrying out HDAC-inhibiting activity measurements, HDAC solutions were prepared in the following manner. In each 100-mm dish, there were sowed 1×10^7 293T cells and, after 24 hours, they were transfected with a vector (5 μg) expressing human HDAC1 or HDAC4 or murine HDAC6 using the LipofectAmine 2000 reagent (Invitrogen). The human HDAC1 expression vector used was pcDNA3-HD1 (Yang, W. M., Yao, Y. L., Sun, J. M., Davie, J. R. & Seto, E. (1997) J. Biol. Chem. 272, 28001-28007), the human HDAC4 expression vector used was pcDNA3-HD4 (Fischle, W., Emiliani, S., Hendzel, M. J., Nagase, T., Nomura, N., Voelter, W. & Verdin, E. (1999) J. Biol. Chem. 274, 11713-11720), and the murine HDAC6 expression vector used was pcDNA3-mHDA2/HDAC6 (Verdel, A. & Khochbin, S. (1999) J. Biol. Chem. 274, 2440-2445).
(§5) After 24 hours of incubation, cells were recovered, washed with PBS, suspended in lysis buffer (50 mM Tris-HCl (pH 7.5), 120 mM NaCl, 5 mM EDTA, 0.5% Nonidet P-40), and sonicated. The supernatant was collected by centrifugation and then deprived of nonspecific proteins using Protein A/G plus agarose beads (Santa Cruz Biotechnologies, Inc.). Thereafter, anti-FLAG M2 antibody (Sigma-Aldrich Inc.) was added, and the reaction was allowed to proceed at 4° C. for 2 hours.
(§6) To this were added agarose beads, the reaction was allowed to proceed at 4° C. for 3 hours, and the agarose beads were washed three times with lysis buffer and then once with HD buffer (20 mM Tris-HCl (pH 8.0), 150 mM NaCl, 10% glycerol). The protein bound to the agarose beads was recovered by 1 hour of incubation with FLAG peptide (40 μg) (Sigma-Aldrich Inc.) in HD buffer (200 μl) at 4° C., and the liquid recovered was used, as a reactant solution, in the HDAC-inhibiting activity measurement described below.
(§7) HDAC-inhibiting activity evaluation in each in vitro system was made as follows. Each test compound was dissolved in DMSO, a stock solution with a concentration of 10 mM was thus prepared and this was used as an inhibitor stock solution. The assay was carried out by incubating the HDAC solution and a coumarin-labeled acetylated histone peptide solution in the presence of the test compound at 37° C. for 30 minutes (reaction volume 20 μl). To the reaction mixture was added 30 μl of trypsin, and the aminomethylcoumarin released by the enzymatic reaction was assayed using a fluorescent plate reader. In a negative control assay, no inhibitor was added to the reaction system and the same procedure was carried out.

murine HDAC6 = molecular target: T3, murine HDAC6 (Mus musculus, UniProt Q9Z2V5); test: as above; type: biochemical; conditions: murine HDAC6 from transfected 293T cells; 37° C., 30 minutes
T3 construct: made in house; host or cells: 293T cells (transient transfection, anti-FLAG immunoprecipitation, FLAG peptide elution)
T3 sequence (Q9Z2V5 1-1149): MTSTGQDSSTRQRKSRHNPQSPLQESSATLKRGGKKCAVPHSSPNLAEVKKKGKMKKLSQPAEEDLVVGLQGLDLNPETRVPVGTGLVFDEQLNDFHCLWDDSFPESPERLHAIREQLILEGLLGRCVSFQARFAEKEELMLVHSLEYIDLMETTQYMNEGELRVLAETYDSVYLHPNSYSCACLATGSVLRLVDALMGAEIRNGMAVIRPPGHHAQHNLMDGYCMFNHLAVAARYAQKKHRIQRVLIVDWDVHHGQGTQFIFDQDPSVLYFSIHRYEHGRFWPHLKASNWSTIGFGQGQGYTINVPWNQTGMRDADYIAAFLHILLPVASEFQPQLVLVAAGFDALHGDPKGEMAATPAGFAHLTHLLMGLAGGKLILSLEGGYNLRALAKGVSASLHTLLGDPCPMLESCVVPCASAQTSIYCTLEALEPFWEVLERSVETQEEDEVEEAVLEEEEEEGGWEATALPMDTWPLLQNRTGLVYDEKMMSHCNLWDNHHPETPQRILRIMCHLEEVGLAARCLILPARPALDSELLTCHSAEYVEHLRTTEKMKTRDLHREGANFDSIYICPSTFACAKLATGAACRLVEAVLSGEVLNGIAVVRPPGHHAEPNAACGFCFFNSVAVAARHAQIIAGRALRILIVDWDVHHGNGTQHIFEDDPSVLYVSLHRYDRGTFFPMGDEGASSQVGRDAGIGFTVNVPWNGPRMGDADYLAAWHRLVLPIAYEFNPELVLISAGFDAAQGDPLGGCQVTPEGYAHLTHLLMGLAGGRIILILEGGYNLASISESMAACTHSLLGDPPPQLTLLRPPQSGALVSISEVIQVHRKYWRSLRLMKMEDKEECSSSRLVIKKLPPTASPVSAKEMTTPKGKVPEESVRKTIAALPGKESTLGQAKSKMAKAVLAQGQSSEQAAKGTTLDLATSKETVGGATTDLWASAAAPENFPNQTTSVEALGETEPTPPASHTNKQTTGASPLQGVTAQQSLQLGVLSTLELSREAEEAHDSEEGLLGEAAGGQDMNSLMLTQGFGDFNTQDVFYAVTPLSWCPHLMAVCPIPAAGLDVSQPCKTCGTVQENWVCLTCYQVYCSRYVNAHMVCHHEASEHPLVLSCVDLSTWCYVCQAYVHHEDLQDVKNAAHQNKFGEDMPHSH
Protocol: as §4, §5, §6, §7

T1 sequence (P56524 whole entry): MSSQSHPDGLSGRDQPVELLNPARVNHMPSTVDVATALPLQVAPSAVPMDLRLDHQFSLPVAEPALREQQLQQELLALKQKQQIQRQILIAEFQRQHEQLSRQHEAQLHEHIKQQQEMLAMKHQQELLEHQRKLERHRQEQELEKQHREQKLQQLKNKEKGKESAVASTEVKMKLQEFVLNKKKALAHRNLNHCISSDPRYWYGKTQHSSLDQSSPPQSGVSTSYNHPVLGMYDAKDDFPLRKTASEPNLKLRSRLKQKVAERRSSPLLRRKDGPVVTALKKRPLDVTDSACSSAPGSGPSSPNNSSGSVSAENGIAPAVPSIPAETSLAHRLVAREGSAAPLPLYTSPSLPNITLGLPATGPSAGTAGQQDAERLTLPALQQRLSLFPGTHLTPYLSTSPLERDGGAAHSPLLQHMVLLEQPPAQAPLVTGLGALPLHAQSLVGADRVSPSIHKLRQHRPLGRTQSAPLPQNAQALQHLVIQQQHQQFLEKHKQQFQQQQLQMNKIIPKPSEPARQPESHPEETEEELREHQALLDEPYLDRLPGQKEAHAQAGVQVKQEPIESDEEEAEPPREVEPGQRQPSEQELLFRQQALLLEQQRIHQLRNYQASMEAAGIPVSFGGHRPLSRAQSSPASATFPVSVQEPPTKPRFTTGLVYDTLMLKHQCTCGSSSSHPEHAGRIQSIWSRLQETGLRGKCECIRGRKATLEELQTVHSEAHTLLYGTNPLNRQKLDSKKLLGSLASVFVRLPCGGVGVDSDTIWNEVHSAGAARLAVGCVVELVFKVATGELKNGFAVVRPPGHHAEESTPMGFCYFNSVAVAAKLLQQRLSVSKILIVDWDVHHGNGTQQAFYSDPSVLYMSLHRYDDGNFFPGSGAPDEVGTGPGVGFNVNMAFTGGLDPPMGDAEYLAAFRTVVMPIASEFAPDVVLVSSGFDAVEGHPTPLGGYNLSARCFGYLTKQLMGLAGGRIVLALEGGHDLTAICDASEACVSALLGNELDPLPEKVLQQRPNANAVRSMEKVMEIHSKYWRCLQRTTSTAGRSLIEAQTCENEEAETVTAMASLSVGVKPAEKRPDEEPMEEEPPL
T1 sequence (O15379 whole entry, further chain): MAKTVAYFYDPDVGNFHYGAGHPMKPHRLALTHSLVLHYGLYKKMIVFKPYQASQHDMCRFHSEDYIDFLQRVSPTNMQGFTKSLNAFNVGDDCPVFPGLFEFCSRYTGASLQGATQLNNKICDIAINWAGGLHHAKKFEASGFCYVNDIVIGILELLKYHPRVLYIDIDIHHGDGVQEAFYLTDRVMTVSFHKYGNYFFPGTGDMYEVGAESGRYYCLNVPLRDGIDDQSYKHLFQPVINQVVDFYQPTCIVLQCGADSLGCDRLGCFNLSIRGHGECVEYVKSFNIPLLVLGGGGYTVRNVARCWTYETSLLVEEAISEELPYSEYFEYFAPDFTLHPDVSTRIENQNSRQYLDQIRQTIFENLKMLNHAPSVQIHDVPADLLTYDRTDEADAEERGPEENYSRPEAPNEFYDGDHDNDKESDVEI
T2 sequence (Q13547 whole entry): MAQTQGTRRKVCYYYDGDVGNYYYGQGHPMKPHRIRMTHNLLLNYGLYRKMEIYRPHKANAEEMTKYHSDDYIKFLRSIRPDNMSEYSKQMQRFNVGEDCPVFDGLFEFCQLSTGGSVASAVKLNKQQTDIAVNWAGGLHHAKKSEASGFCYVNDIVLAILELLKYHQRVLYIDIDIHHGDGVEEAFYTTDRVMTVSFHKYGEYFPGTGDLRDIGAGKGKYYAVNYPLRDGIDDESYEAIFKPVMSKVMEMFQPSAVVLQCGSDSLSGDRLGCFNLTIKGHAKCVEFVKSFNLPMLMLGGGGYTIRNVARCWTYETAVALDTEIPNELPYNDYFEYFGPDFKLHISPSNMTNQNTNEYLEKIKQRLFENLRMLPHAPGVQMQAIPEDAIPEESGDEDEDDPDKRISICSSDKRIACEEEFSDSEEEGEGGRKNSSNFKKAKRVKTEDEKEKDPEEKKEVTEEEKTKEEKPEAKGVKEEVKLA

Structure (SMILES)	IC50 [2]	IC50 [3]	IC50 (human HDAC4)	IC50 (human HDAC1)	IC50 (murine HDAC6)	p21 promoter activity EC1000 [1]
COCC(=O)CCCCC[C@@H]1NC(=O)[C@H]2CCCN2C(=O)[C@H](Cc2ccccc2)NC(=O)C(C)(C)NC1=O [Ky-9, cyclo(-L-Ae9(Mmk)-Aib-L-Phe-D-Pro-)]	≤ 100 nM	≤ 100 nM	28 nM	–	–	0.043 µM
CC1(C)NC(=O)[C@H](CCCCCCSCC(=O)C(F)(F)F)NC(=O)[C@H]2CCCN2C(=O)[C@H](Cc2ccccc2)NC1=O [Ky-73, cyclo(-L-Am8(1,1,1-trifluoroacetonyl)-Aib-L-Phe-D-Pro-)]	–	–	460 nM	1100 nM	26400 nM	3.7 µM
COCC(=O)CSCCCCC[C@@H]1NC(=O)[C@H]2CCCN2C(=O)[C@H](Cc2ccccc2)NC(=O)C(C)(C)NC1=O [Ky-85, cyclo(-L-Am7(methoxyacetonyl)-Aib-L-Phe-D-Pro-)]	–	–	77 nM	130 nM	1200 nM	0.48 µM

Further lines, with some results ahead:

IC50 [2]	IC50 [3]	IC50 (human HDAC4)	IC50 (human HDAC1)	IC50 (murine HDAC6)	Structure (SMILES)	p21 promoter activity EC1000 [1]
–	–	330 nM	400 nM	3700 nM	CC1(C)NC(=O)[C@H](CCCCCSCc2cccnc2)NC(=O)[C@H]2CCCN2C(=O)[C@H](Cc2ccccc2)NC1=O [Ky-68, cyclo(-L-Am7(3-pyridylmethyl)-Aib-L-Phe-D-Pro-)]	0.20 µM
–	–	6.5 nM	11 nM	120 nM	CC1(C)NC(=O)[C@H](CCCCCSCc2ccccc2)NC(=O)[C@H]2CCCN2C(=O)[C@H](Cc2ccccc2)NC1=O [Ky-69, cyclo(-L-Am7(benzyl)-Aib-L-Phe-D-Pro-)]	0.041 µM
–	–	> 100000 nM	> 100000 nM	> 100000 nM	CC1(C)NC(=O)[C@H](CCCCC[S+]([O-])CC(=O)C(F)(F)F)NC(=O)[C@H]2CCCN2C(=O)[C@H](Cc2ccccc2)NC1=O (stereo partly drawn) [Ky-71, cyclo(-L-Am7(1,1,1-trifluoroacetonyl, sulfoxide)-Aib-L-Phe-D-Pro-)]	3.4 µM
–	–	> 100000 nM	> 100000 nM	> 100000 nM	CC(=O)COCCCCC[C@@H]1NC(=O)[C@H]2CCCN2C(=O)[C@H](Cc2ccccc2)NC(=O)C(C)(C)NC1=O [Ky-74, cyclo(-L-Ah7(acetonyl)-Aib-L-Phe-D-Pro-)]	>250 µM

— patent publication US8158587B2, “Compound having histone deacetylase-inhibiting activity, and pharmaceutical composition comprising the compound as an active ingredient” (Kyushu Institute of Technology, priority 2006, dated 2012)
